Among the data in US9493446B2, “Orexin receptor antagonists which are [ortho bi-(hetero-)aryl]-[2-(meta bi-(hetero-)aryl)-pyrrolidin-1-yl]-methanone derivatives” (Actelion Pharmaceuticals Ltd, priority 2012, dated 2016) are IC50 values, retold here.

Like-named read-outs stand apart in the source and are kept apart here.

The target in one experiment is orexin-1 (Homo sapiens (Human), UniProt O43613). The experiment can be described thus: Intracellular calcium measurement (FLIPR), CHO cells expressing human orexin-1 receptor, 3 nM orexin-A. It counts as cell-based. The settings on record: CHO cells expressing human orexin-1 receptor, FLIPR, 3 nM orexin-A; geometric mean if determined several times; read-out: IC50 OX1. The method, boiled down: (§1)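 Antagonist is added 120 min before agonist. Fluo-4 AM-loaded CHO cells carry human orexin-1 or orexin-2 receptor, and calcium is read by FLIPR.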
orexin-1, sequence (O43613 whole entry): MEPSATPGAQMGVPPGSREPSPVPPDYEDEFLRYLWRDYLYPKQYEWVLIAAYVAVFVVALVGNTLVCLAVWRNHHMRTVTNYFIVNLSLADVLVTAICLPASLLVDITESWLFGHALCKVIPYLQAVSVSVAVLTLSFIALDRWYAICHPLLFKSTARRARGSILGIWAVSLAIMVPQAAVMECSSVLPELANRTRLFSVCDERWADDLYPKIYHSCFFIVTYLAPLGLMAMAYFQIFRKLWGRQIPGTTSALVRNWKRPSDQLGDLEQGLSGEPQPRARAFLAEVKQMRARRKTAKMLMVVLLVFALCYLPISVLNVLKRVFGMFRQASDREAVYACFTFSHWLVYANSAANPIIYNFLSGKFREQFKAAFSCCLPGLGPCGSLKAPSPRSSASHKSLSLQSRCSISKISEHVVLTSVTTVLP
Background: Calcium flux is commonly read through the fluorescence of an indicator in the cells.

The target in a further experiment is human orexin-2 receptor (Homo sapiens (Human), UniProt O43614). The experiment can be described thus: Intracellular calcium measurement (FLIPR), CHO cells expressing human orexin-2 receptor, 3 nM orexin-A. It counts as cell-based. The settings on record: read-out: IC50 OX2. The method, boiled down: as §1
human orexin-2 receptor, sequence (O43614 whole entry): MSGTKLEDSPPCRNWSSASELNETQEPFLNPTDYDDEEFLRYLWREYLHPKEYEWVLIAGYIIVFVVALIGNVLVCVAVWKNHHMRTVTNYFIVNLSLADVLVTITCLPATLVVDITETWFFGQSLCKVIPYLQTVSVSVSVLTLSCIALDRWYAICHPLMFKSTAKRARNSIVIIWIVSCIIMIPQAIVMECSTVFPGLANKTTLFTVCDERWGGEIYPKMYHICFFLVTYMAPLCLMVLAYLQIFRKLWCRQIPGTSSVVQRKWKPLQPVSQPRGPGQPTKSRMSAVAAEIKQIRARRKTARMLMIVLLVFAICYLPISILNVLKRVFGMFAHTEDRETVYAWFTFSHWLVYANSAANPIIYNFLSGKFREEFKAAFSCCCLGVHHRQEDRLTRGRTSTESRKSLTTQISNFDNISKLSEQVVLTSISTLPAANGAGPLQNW
[1] abbreviates: CHO cells expressing human orexin-2 receptor, FLIPR, 3 nM orexin-A, geometric mean if determined several times.

The IC50 is the concentration that inhibits the measured activity by half.

Take `Cc1ccc(-n2nccn2)c(C(=O)N2CCC[C@H]2c2nc(-c3cccnc3OC3CCCC3)no2)c1` [compound 49, {(S)-2-[3-(2-Cyclopentyloxy-pyridin-3-yl)-[1,2,4]oxadiazol-5-yl]-pyrrolidin-1-yl}-(5-methyl-2-[1,2,3]triazol-2-yl-phenyl)-methanone]: the IC50 on orexin-1 amounted to 89 nM; at human orexin-2 receptor (setting [1]) it was 233 nM.

`Cc1ccc(-n2nccn2)c(C(=O)N2CCC[C@H]2c2nc(-c3c[nH]c4ncccc34)no2)c1` [compound 50, (5-Methyl-2-[1,2,3]triazol-2-yl-phenyl)-{(S)-2-[3-(1H-pyrrolo[2,3-b]pyridin-3-yl)-[1,2,4]oxadiazol-5-yl]-pyrrolidin-1-yl}-methanone]: the IC50 at orexin-1 was found to be 131 nM; on human orexin-2 receptor (setting [1]), 75 nM.

In the case of `Cc1ccc(-n2nccn2)c(C(=O)N2CCC[C@H]2c2nc(-c3cn(C)c4ncccc34)no2)c1` [compound 51, {(S)-2-[3-(1-Methyl-1H-pyrrolo[2,3-b]pyridin-3-yl)-[1,2,4]oxadiazol-5-yl]-pyrrolidin-1-yl}-(5-methyl-2-[1,2,3]triazol-2-yl-phenyl)-methanone], the IC50 on orexin-1 was determined as 15 nM; at human orexin-2 receptor (setting [1]) it was 11 nM.

For `Cc1ccc(-n2nccn2)c(C(=O)N2CCC[C@H]2c2nc(-c3cccc4c3OCO4)no2)c1` [compound 52, [(S)-2-(3-Benzo[1,3]dioxol-4-yl-[1,2,4]oxadiazol-5-yl)-pyrrolidin-1-yl]-(5-methyl-2-[1,2,3]triazol-2-yl-phenyl)-methanone], the IC50 was found to be 182 nM on orexin-1 and 25 nM at human orexin-2 receptor (setting [1]).

`CCc1ncccc1-c1noc([C@@H]2CCCN2C(=O)c2cc(C)ccc2-n2nccn2)n1` [compound 53, {(S)-2-[3-(2-Ethyl-pyridin-3-yl)-[1,2,4]oxadiazol-5-yl]-pyrrolidin-1-yl}-(5-methyl-2-[1,2,3]triazol-2-yl-phenyl)-methanone]: the IC50 on orexin-1 came out at 315 nM; on human orexin-2 receptor (setting [1]) it was 97 nM.

Turning to `Cc1ccc(-n2nccn2)c(C(=O)N2CCC[C@H]2c2nc(-c3cccc(C(F)(F)F)c3C)no2)c1` [compound 54, (5-Methyl-2-[1,2,3]triazol-2-yl-phenyl)-{(S)-2-[3-(2-methyl-3-trifluoromethyl-phenyl)-[1,2,4]oxadiazol-5-yl]-pyrrolidin-1-yl}-methanone], the IC50 at orexin-1 was 216 nM; at human orexin-2 receptor (setting [1]), 46 nM.

Turning to `CCOc1cnccc1-c1noc([C@@H]2CCCN2C(=O)c2cc(C)ccc2-n2nccn2)n1` [compound 55, {(S)-2-[3-(3-Ethoxy-pyridin-4-yl)-[1,2,4]oxadiazol-5-yl]-pyrrolidin-1-yl}-(5-methyl-2-[1,2,3]triazol-2-yl-phenyl)-methanone], the IC50 at orexin-1 came out at 241 nM; at human orexin-2 receptor (setting [1]) it was 41 nM.

`CCOc1c(F)cccc1-c1noc([C@@H]2CCCN2C(=O)c2cc(C)ccc2-n2nccn2)n1` [compound 56, {(S)-2-[3-(2-Ethoxy-3-fluoro-phenyl)-[1,2,4]oxadiazol-5-yl]-pyrrolidin-1-yl}-(5-methyl-2-[1,2,3]triazol-2-yl-phenyl)-methanone]: the IC50 turned out to be 16 nM at orexin-1 and 7 nM on human orexin-2 receptor (setting [1]).

Consider `Cc1ccc(-n2nccn2)c(C(=O)N2CCC[C@H]2c2nc(-c3cn(C)c4ccccc34)no2)c1` [compound 57, {(S)-2-[3-(1-Methyl-1H-indol-3-yl)-[1,2,4]oxadiazol-5-yl]-pyrrolidin-1-yl}-(5-methyl-2-[1,2,3]triazol-2-yl-phenyl)-methanone], for which the IC50 came to 7 nM at orexin-1 and 4 nM at human orexin-2 receptor (setting [1]).

Regarding `Cc1ccc(-n2nccn2)c(C(=O)N2CCC[C@H]2c2nc(-c3cnccc3C)no2)c1` [compound 58, {(S)-2-[3-(4-Methyl-pyridin-3-yl)-[1,2,4]oxadiazol-5-yl]-pyrrolidin-1-yl}-(5-methyl-2-[1,2,3]triazol-2-yl-phenyl)-methanone], the IC50 is > 5040 nM at orexin-1 and 536 nM at human orexin-2 receptor (setting [1]).

With `COc1cccc(-c2noc([C@@H]3CCCN3C(=O)c3cc(C)ccc3-n3nccn3)n2)c1OC` [compound 59, {(S)-2-[3-(2,3-Dimethoxy-phenyl)-[1,2,4]oxadiazol-5-yl]-pyrrolidin-1-yl}-(5-methyl-2-[1,2,3]triazol-2-yl-phenyl)-methanone], the IC50 at orexin-1 worked out at 1220 nM; on human orexin-2 receptor (setting [1]) it was 47 nM.

With `Cc1ccc(-n2nccn2)c(C(=O)N2CCC[C@H]2c2nc(-c3cnn(C)c3)no2)c1` [compound 60, {(S)-2-[3-(1-Methyl-1H-pyrazol-4-yl)-[1,2,4]oxadiazol-5-yl]-pyrrolidin-1-yl}-(5-methyl-2-[1,2,3]triazol-2-yl-phenyl)-methanone], the IC50 at orexin-1 was > 1420 nM; on human orexin-2 receptor (setting [1]) it was 419 nM.

On to `CCc1cnc(-c2noc([C@@H]3CCCN3C(=O)c3cc(C)ccc3-n3nccn3)n2)cc1C` [compound 61, {(S)-2-[3-(5-Ethyl-4-methyl-pyridin-2-yl)-[1,2,4]oxadiazol-5-yl]-pyrrolidin-1-yl}-(5-methyl-2-[1,2,3]triazol-2-yl-phenyl)-methanone], for which the IC50 worked out at 1480 nM on orexin-1 and 271 nM on human orexin-2 receptor (setting [1]).

Turning to `Cc1ccc(-n2nccn2)c(C(=O)N2CCC[C@H]2c2nc(-c3cc(C)c(C)cn3)no2)c1` [compound 62, {(S)-2-[3-(4,5-Dimethyl-pyridin-2-yl)-[1,2,4]oxadiazol-5-yl]-pyrrolidin-1-yl}-(5-methyl-2-[1,2,3]triazol-2-yl-phenyl)-methanone], the figures for the IC50 at orexin-1 and at human orexin-2 receptor (setting [1]) were > 1630 nM and 242 nM, respectively.

Regarding `Cc1ccc(-n2nccn2)c(C(=O)N2CCC[C@H]2c2nc(-c3ccc(C)c(C)n3)no2)c1` [compound 63, {(S)-2-[3-(5,6-Dimethyl-pyridin-2-yl)-[1,2,4]oxadiazol-5-yl]-pyrrolidin-1-yl}-(5-methyl-2-[1,2,3]triazol-2-yl-phenyl)-methanone], the IC50 on orexin-1 came out at 1420 nM; at human orexin-2 receptor (setting [1]), 361 nM.

For the compound `COc1cc(O)ccc1-c1noc([C@@H]2CCCN2C(=O)c2cc(C)ccc2-n2nccn2)n1` [compound 64, {(S)-2-[3-(4-Hydroxy-2-methoxy-phenyl)-[1,2,4]oxadiazol-5-yl]-pyrrolidin-1-yl}-(5-methyl-2-[1,2,3]triazol-2-yl-phenyl)-methanone], the IC50 stood at 198 nM at orexin-1 and 52 nM at human orexin-2 receptor (setting [1]).

Turning to `Cc1ccc(-n2nccn2)c(C(=O)N2CCC[C@H]2c2nc(-c3cc(C)nc(C)c3)no2)c1` [compound 65, {(S)-2-[3-(2,6-Dimethyl-pyridin-4-yl)-[1,2,4]oxadiazol-5-yl]-pyrrolidin-1-yl}-(5-methyl-2-[1,2,3]triazol-2-yl-phenyl)-methanone], the values for the IC50 at orexin-1 and on human orexin-2 receptor (setting [1]) were 758 nM and 375 nM, respectively.

Take `COc1cc(-c2noc([C@@H]3CCCN3C(=O)c3cc(C)ccc3-n3nccn3)n2)cc(C)n1` [compound 66, {(S)-2-[3-(2-Methoxy-6-methyl-pyridin-4-yl)-[1,2,4]oxadiazol-5-yl]-pyrrolidin-1-yl}-(5-methyl-2-[1,2,3]triazol-2-yl-phenyl)-methanone]: the IC50 at orexin-1 turned out to be 302 nM; on human orexin-2 receptor (setting [1]), 155 nM.

Regarding `Cc1cc(CC(C)C)nc(-c2noc([C@@H]3CCCN3C(=O)c3cc(C)ccc3-n3nccn3)n2)c1` [compound 67, {(S)-2-[3-(6-Isobutyl-4-methyl-pyridin-2-yl)-[1,2,4]oxadiazol-5-yl]-pyrrolidin-1-yl}-(5-methyl-2-[1,2,3]triazol-2-yl-phenyl)-methanone], the figures for the IC50 at orexin-1 and on human orexin-2 receptor (setting [1]) were 1250 nM and 333 nM, respectively.

Turning to `Cc1ccc(-n2nccn2)c(C(=O)N2CCC[C@H]2c2nc(-c3ccnc(C)c3)no2)c1` [compound 68, {(S)-2-[3-(2-Methyl-pyridin-4-yl)-[1,2,4]oxadiazol-5-yl]-pyrrolidin-1-yl}-(5-methyl-2-[1,2,3]triazol-2-yl-phenyl)-methanone], the values for the IC50 on orexin-1 and at human orexin-2 receptor (setting [1]) were 6670 nM and 915 nM, respectively.

Regarding `COc1ccc(F)c(-c2noc([C@@H]3CCCN3C(=O)c3cc(C)ccc3-n3nccn3)n2)c1F` [compound 69, {(S)-2-[3-(2,6-Difluoro-3-methoxy-phenyl)-[1,2,4]oxadiazol-5-yl]-pyrrolidin-1-yl}-(5-methyl-2-[1,2,3]triazol-2-yl-phenyl)-methanone], the IC50 worked out at 1840 nM at orexin-1 and 163 nM at human orexin-2 receptor (setting [1]).

For the compound `COc1cccc(-c2noc([C@@H]3CCCN3C(=O)c3cc(C)ccc3-n3nccn3)n2)c1Cl` [compound 70], the IC50 on orexin-1 was determined as 623 nM; at human orexin-2 receptor, 53 nM.

As for `Cc1ccc(-n2nccn2)c(C(=O)N2CCC[C@H]2c2nc(-c3cccnc3OC(C)C)no2)c1` [compound 71, {(S)-2-[3-(2-Isopropoxy-pyridin-3-yl)-[1,2,4]oxadiazol-5-yl]-pyrrolidin-1-yl}-(5-methyl-2-[1,2,3]triazol-2-yl-phenyl)-methanone], the IC50 at orexin-1 was 8 nM; at human orexin-2 receptor (setting [1]), 22 nM.

Take `COc1cccc(F)c1-c1noc([C@@H]2CCCN2C(=O)c2cc(C)ccc2-n2nccn2)n1` [compound 72, {(S)-2-[3-(2-Fluoro-6-methoxy-phenyl)-[1,2,4]oxadiazol-5-yl]-pyrrolidin-1-yl}-(5-methyl-2-[1,2,3]triazol-2-yl-phenyl)-methanone]: the IC50 at orexin-1 amounted to 901 nM; on human orexin-2 receptor (setting [1]), 57 nM.

`Cc1ccc(-n2nccn2)c(C(=O)N2CCC[C@H]2c2nc(-c3ccnc(Cl)c3)no2)c1` [compound 73]: the IC50 at orexin-1 came out at 3480 nM; on human orexin-2 receptor (setting [1]) it was 1160 nM.

Consider `Cc1ccc(-n2nccn2)c(C(=O)N2CCC[C@H]2c2nc(-c3cccc4c3ccn4C)no2)c1` [compound 74, {(S)-2-[3-(1-Methyl-1H-indol-4-yl)-[1,2,4]oxadiazol-5-yl]-pyrrolidin-1-yl}-(5-methyl-2-[1,2,3]triazol-2-yl-phenyl)-methanone], for which the values for the IC50 at orexin-1 and at human orexin-2 receptor (setting [1]) were 254 nM and 6 nM, respectively.
